From the NIST ThermoML archive (doi:10.1016/j.tca.2016.12.008) come the findings set out here.

The conditions of data set [1]: for Normal melting temperature: DTA.
Data set [2] in a line: Molar enthalpy of transition or fusion. Conditions: Crystal; DSC.

The structures appear in SMILES notation. Several values for one entry are separate records, joined by “and”; a condition that tells them apart may be missing. Equal values may be shown once. ± gives the expanded uncertainty stated by the source.

Take `CC(C)(C)C(=O)Oc1ccc2ccccc2c1-c1c(OC(=O)C(C)(C)C)ccc2ccccc12`: the mass density in data set [1] (293 K, 101.33 kPa, Crystal, X-ray diffraction) amounted to 1173 ± 6 kg/m3. Besides, in data set [1] (Crystal), the Normal melting temperature is 156.20 ± 0.9 °C and 155.50 ± 0.5 °C. In addition, the Glass transition temperature in data set [1] (Glass, DSC) worked out at 25.00 ± 2 °C. Further, the “Molar enthalpy of transition or fusion” value in data set [2] came out at 6.81 ± 0.191 kcal/mol.

Consider `Oc1ccc2ccccc2c1-c1c(O)ccc2ccccc12` [(1,1'-binaphthalene)-2,2'-diol], for which the Normal melting temperature in data set [1] (Crystal) turned out to be 215.40 ± 0.5 °C. Also, the “Molar enthalpy of transition or fusion” value in data set [2] amounted to 7.46 ± 0.215 kcal/mol.

For the compound `CC(C)(C)C(=O)Oc1ccc2ccccc2c1-c1c(OC(=O)C(C)(C)C)ccc2ccccc12` [(1,1'-binaphthalene)-2,2'-diyl bis(2,2-dimethylpropanoate)], the Normal melting temperature in data set [1] (Crystal 1) was 123.80 ± 0.5 °C. In addition, the Triple point temperature in data set [1] (Crystal 2, DSC) is given as 389.55 ± 1.3 K.

As for `Oc1ccc2ccccc2c1-c1c(O)ccc2ccccc12` [(S)-(1,1'-binaphthalene)-2,2'-diol], the Normal melting temperature in data set [1] (Crystal) is 209.20 ± 0.5 °C and 208.00 ± 0.5 °C. In addition, the “Molar enthalpy of transition or fusion” value in data set [2] is 7.39 ± 0.167 kcal/mol.

As usually defined, the mass density is the mass of a sample divided by its volume.
